Test system: participants with SSc-RP
Experiment: Scleroderma Health Assessment Questionnaire (SHAQ), Phase 2a study Part A
Assay type: in vivo, human
Conditions: cilnidipine 10 mg and/or tadalafil 5 mg arms
Procedure: Part A—double-blind, placebo-controlled, parallel-group, dose selection, will assess the safety and efficacy of two doses of cilnidipine (10 mg and 20 mg), alone and in combination with tadalafil. A total of 36 participants will be randomized to one of six prespecified treatment arms. Refer to FIG. 1 for treatment arms in Part A of the study. Dosing last for 12 (±2) days in which participants will self-administer daily doses of assigned treatment in the morning. Each participant will take one capsule and one tablet to blind the active therapy being received.
The standard, validated, patient reported outcome measures tool for SSc patients, the SHAQ, will be collected at the time points specified in the study schedules (FIG. 2 and FIGS. 3A and 3B) to assess the participant's quality of life. The SHAQ includes a Raynaud's VAS that will also be reported separately.
Results: Patients in the study were administered the Scleroderma Health Assessment Questionnaire (SHAQ) at the time of study entry and during clinic visits following the treatment period. The study is a two-part, parallel arm design, prospective, double-blind, randomized study conducted in Australia (Flinders Medical Center). 27 patients were randomized into the first phase of the study, following which a DSMB meeting was held, which reviewed data on the primary study endpoint and key Raynaud's secondary endpoints. Data on the SHAQ was not available for the DSMB to review. The mITT population, in which any data was available post treatment was 24 patients was the analysis population for this first part of the study. The second part (i.e., part B) of the study will randomize 36 patients in a double blind, randomized, prospective, placebo controlled, crossover study. In the first part (i.e., Part A) of the study for which data is presented, patients were randomized into 6 groups, cilnidipine at two doses (10 and 20 mg) alone and in combination with tadalafil 5 mg, tadalafil 5 mg alone, and placebo. […] The DSMB recommended that the study proceed into its double blind prospective cross overpowered second phase and compare cilnidipine 20 mg alone to placebo.

## CN1CC(=O)N2[C@H](c3ccc4c(c3)OCO4)c3[nH]c4ccccc4c3C[C@@H]2C1=O [Tadalafil, tadalafil]
  SHAQ Finger Ulcers, Change from Baseline, Max: 1.00
  SHAQ Finger Ulcers, Change from Baseline, Mean (SD): 0.250 (0.5000)
  SHAQ Finger Ulcers, Change from Baseline, Median: 0.000
  SHAQ Finger Ulcers, Change from Baseline, Min: 0.00
  SHAQ Finger Ulcers, Change from Baseline, Q1: 0.000
  SHAQ Finger Ulcers, Change from Baseline, Q3: 0.500
  SHAQ Finger Ulcers, In Clinic Visit (Day 12), Max: 9.20
  SHAQ Finger Ulcers, In Clinic Visit (Day 12), Mean (SD): 2.325 (4.5836)
  SHAQ Finger Ulcers, In Clinic Visit (Day 12), Median: 0.050
  SHAQ Finger Ulcers, In Clinic Visit (Day 12), Min: 0.00
  SHAQ Finger Ulcers, In Clinic Visit (Day 12), Q1: 0.000
  SHAQ Finger Ulcers, In Clinic Visit (Day 12), Q3: 4.650
  SHAQ Finger Ulcers, Percent Change from Baseline, Max: 12.2%
  SHAQ Finger Ulcers, Percent Change from Baseline, Mean (SD): 6.10 (8.623) %
  SHAQ Finger Ulcers, Percent Change from Baseline, Median: 6.10%
  SHAQ Finger Ulcers, Percent Change from Baseline, Min: 0.0%
  SHAQ Finger Ulcers, Percent Change from Baseline, Q1: 0.00%
  SHAQ Finger Ulcers, Percent Change from Baseline, Q3: 12.20%
  SHAQ Overall Change in Severity, Change from Baseline, Max: 2.40
  SHAQ Overall Change in Severity, Change from Baseline, Median: 0.700
  SHAQ Overall Change in Severity, Change from Baseline, Min: −1.30
  SHAQ Overall Change in Severity, Change from Baseline, Q1: −0.600
  SHAQ Overall Change in Severity, Change from Baseline, Q3: 1.850
  SHAQ Overall Change in Severity, In Clinic Visit (Day 12), Max: 9.10
  SHAQ Overall Change in Severity, In Clinic Visit (Day 12), Mean (SD): 5.600 (4.2528)
  SHAQ Overall Change in Severity, In Clinic Visit (Day 12), Median: 6.550
  SHAQ Overall Change in Severity, In Clinic Visit (Day 12), Min: 0.20
  SHAQ Overall Change in Severity, In Clinic Visit (Day 12), Q1: 2.200
  SHAQ Overall Change in Severity, In Clinic Visit (Day 12), Q3: 9.000
  SHAQ Overall Change in Severity, Percent Change from Baseline, Max: 100.0%
  SHAQ Overall Change in Severity, Percent Change from Baseline, Mean (SD): 32.49 (51.568) %
  SHAQ Overall Change in Severity, Percent Change from Baseline, Median: 26.790%
  SHAQ Overall Change in Severity, Percent Change from Baseline, Min: −23.6%
  SHAQ Overall Change in Severity, Percent Change from Baseline, Q1: −3.48%
  SHAQ Overall Change in Severity, Percent Change from Baseline, Q3: 68.46%
  SHAQ Standard disability index, Change from Baseline, Max: 0.00
  SHAQ Standard disability index, Change from Baseline, Mean (SD): −0.063 (0.0722)
  SHAQ Standard disability index, Change from Baseline, Median: −0.063
  SHAQ Standard disability index, Change from Baseline, Min: −0.13
  SHAQ Standard disability index, Change from Baseline, Q1: −0.125
  SHAQ Standard disability index, Change from Baseline, Q3: 0.000
  SHAQ Standard disability index, In Clinic Visit (Day 12), Max: 1.00
  SHAQ Standard disability index, In Clinic Visit (Day 12), Mean (SD): 0.531 (0.4130)
  SHAQ Standard disability index, In Clinic Visit (Day 12), Median: 0.563
  SHAQ Standard disability index, In Clinic Visit (Day 12), Min: 0.00
  SHAQ Standard disability index, In Clinic Visit (Day 12), Q1: 0.250
  SHAQ Standard disability index, In Clinic Visit (Day 12), Q3: 0.813
  SHAQ Standard disability index, Percent Change from Baseline, Max: 0.0%
  SHAQ Standard disability index, Percent Change from Baseline, Mean (SD): −9.26 (8.486) %
  SHAQ Standard disability index, Percent Change from Baseline, Median: −11.11%
  SHAQ Standard disability index, Percent Change from Baseline, Min: −16.7%
  SHAQ Standard disability index, Percent Change from Baseline, Q1: −16.67%
  SHAQ Standard disability index, Percent Change from Baseline, Q3: 0.00%
  SHAQ Visual Analog Scale-Breathing Problems, Change from Baseline, Max: 2.80
  SHAQ Visual Analog Scale-Breathing Problems, Change from Baseline, Mean (SD): 0.500 (2.5599)
  SHAQ Visual Analog Scale-Breathing Problems, Change from Baseline, Median: 1.050
  SHAQ Visual Analog Scale-Breathing Problems, Change from Baseline, Min: −2.90
  SHAQ Visual Analog Scale-Breathing Problems, Change from Baseline, Q1: −1.450
  SHAQ Visual Analog Scale-Breathing Problems, Change from Baseline, Q3: 2.450
  SHAQ Visual Analog Scale-Breathing Problems, In Clinic Visit (Day 12), Max: 9.20
  SHAQ Visual Analog Scale-Breathing Problems, In Clinic Visit (Day 12), Mean (SD): 4.300 (4.8840)
  SHAQ Visual Analog Scale-Breathing Problems, In Clinic Visit (Day 12), Median: 4.000
  SHAQ Visual Analog Scale-Breathing Problems, In Clinic Visit (Day 12), Min: 0.00
  SHAQ Visual Analog Scale-Breathing Problems, In Clinic Visit (Day 12), Q1: 0.100
  SHAQ Visual Analog Scale-Breathing Problems, In Clinic Visit (Day 12), Q3: 8.500
  SHAQ Visual Analog Scale-Breathing Problems, Percent Change from Baseline, Max: 56.0%
  SHAQ Visual Analog Scale-Breathing Problems, Percent Change from Baseline, Mean (SD): −2.66 (79.815) %
  SHAQ Visual Analog Scale-Breathing Problems, Percent Change from Baseline, Median: 29.58%
  SHAQ Visual Analog Scale-Breathing Problems, Percent Change from Baseline, Min: −93.5%
  SHAQ Visual Analog Scale-Breathing Problems, Percent Change from Baseline, Q1: −93.55%
  SHAQ Visual Analog Scale-Breathing Problems, Percent Change from Baseline, Q3: 56.00%
